The text below walks through data of patent publication US10266550B2, “Bacterial topoisomerase I inhibitors with antibacterial activity” (The Florida International University Board of Trustees, priority 2016, dated 2019).

The target in experiment [1] is E. coli topoisomerase I (Escherichia coli (strain K12), UniProt P06612). Nature of the experiment: biochemical. In kind it is biochemical. The method, then: Recombinant E. coli topoisomerase I and gyrase expressed in E. coli were purified as described previously.
Chain of E. coli topoisomerase I (P06612 whole entry, looked up): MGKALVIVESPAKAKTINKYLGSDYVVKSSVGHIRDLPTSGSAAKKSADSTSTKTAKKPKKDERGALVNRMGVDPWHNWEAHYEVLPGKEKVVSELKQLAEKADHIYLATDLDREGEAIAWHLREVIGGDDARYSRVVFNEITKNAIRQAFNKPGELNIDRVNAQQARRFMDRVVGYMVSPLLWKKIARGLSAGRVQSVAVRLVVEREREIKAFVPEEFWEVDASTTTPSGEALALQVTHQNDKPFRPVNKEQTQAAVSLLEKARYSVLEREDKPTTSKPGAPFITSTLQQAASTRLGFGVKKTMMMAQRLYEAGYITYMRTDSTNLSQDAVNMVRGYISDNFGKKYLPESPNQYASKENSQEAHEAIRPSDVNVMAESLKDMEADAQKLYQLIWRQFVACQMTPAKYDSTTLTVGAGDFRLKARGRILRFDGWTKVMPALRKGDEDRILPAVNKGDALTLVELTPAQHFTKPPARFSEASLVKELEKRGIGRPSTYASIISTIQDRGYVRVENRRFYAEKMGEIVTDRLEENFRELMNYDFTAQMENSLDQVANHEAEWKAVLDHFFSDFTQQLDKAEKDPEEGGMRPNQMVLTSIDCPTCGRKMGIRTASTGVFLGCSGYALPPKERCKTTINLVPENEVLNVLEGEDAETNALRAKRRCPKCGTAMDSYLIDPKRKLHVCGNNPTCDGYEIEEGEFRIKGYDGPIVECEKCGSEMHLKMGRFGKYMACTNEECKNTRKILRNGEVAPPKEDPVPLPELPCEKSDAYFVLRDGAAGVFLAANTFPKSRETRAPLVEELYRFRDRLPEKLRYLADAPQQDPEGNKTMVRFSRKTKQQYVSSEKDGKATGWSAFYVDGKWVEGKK
E. coli Topoisomerase I Relaxation Activity Inhibition Assay
The relaxation activity of E. coli topoisomerase I was assayed in a buffer containing 10 mM Tris-HCl, pH 8.0, 50 mM NaCl, 0.1 mg/mL gelatin, and 0.5 mM MgCl2. Half microliter from the appropriate stock solutions of compounds dissolved in the solvent (DMSO) or the solvent alone (control) was mixed with 9.5 μL of the reaction buffer containing 10 ng of enzyme before the addition of 10 μL of reaction buffer containing 200 ng of supercoiled pBAD/Thio plasmid DNA purified by cesium chloride gradient as substrate. Following incubation at 37° C. for 30 min, the reactions were terminated by the addition of 4 μL of a stop buffer (50% glycerol, 50 mM EDTA, and 0.5% (v/v) bromophenol blue), and analyzed by agarose gel electrophoresis. The gels were stained in ethidium bromide and photographed under UV light.

Experiment [2] deals with Human topoisomerase I (Homo sapiens (Human), UniProt P11387). Nature of the experiment: Human topoisomerase I relaxation inhibition assay. In kind it is biochemical. As to conditions: read-out: Topoisomerase inhibitory activity (IC50) Human topo I (type IB). The procedure: Human topoisomerase I relaxation assays were carried out with 0.5 U of enzyme in reaction buffer supplied by the manufacturer. The enzyme was mixed with the indicated concentration of compound dissolved before 200 ng of supercoiled pBAD/Thio plasmid DNA was added in the same buffer, for a final volume of 20 μL. Following incubation at 37° C. for 30 minutes, the reactions were terminated with a buffer containing 5% SDS, 0.25% bromophenol blue, and 25% glycerol, and analyzed by agarose gel electrophoresis.
Chain of Human topoisomerase I (P11387 whole entry): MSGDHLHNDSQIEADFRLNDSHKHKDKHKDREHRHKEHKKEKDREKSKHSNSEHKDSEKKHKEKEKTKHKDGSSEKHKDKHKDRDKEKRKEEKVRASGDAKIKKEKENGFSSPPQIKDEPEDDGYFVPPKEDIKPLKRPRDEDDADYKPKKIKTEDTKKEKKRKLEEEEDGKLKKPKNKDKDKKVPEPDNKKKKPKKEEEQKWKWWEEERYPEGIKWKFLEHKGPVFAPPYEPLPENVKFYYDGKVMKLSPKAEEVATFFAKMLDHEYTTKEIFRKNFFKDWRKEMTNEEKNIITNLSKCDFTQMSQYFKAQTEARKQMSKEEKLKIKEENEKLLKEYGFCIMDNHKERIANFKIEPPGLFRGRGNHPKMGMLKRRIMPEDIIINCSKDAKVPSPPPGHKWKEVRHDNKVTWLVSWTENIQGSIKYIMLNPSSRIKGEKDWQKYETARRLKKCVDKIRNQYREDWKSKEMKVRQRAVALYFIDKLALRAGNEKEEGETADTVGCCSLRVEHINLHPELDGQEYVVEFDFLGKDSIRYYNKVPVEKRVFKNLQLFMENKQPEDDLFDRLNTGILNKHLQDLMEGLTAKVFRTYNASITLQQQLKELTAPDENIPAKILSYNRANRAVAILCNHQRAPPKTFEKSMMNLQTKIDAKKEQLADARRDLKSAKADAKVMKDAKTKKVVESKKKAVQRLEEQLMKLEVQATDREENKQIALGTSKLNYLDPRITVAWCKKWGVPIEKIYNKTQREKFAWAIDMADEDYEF
Human topoisomerase I and topoisomerase IIα were purchased from TopoGen (Buena vista, CO, USA).

Experiment [3] deals with E. coli (MG1655) WT. Nature of the experiment: MIC, microdilution in Mueller-Hinton Broth. The following applies: Escherichia coli, MG1655; wild type; read-out: Whole cell based antibacterial activity (MIC) E. coli (MG1655) WT. (In broth dilution the organism is exposed to a series of concentrations in liquid medium.)
The test system of experiment [4] is all the test bacteria strains. Nature of the experiment: Whole cell antibacterial activity across all test strains. Format: cell-based. As to conditions: range over strains; read-out: MICs against all the test bacteria strains.

pIC50: −log10 of the molar value. Values after ≈ are worked out from the molar mass of the structure shown.

One may read the pIC50 as the IC50 on a negative log10 scale, so that one unit is a factor of ten. Regarding `CN1CCN(c2c(F)cc3c(=O)c(C(=O)O)cn4c3c2Oc2cc(N)ccc2-4)CC1` [Compound 11a, 9-Amino-5-fluoro-6-(4-methylpiperazin-1-yl)-3-oxo-3H-pyrido[3,2,1-kl]phenoxazine-2-carboxylic acid], the pIC50 is 6.01 to 6.62 in experiment [1] (Topoisomerase inhibitory activity (IC50) E. coli topo I (type IA), relaxation of supercoiled plasmid DNA) and 4.81 in experiment [2]. Further, in experiment [1] (experimental, converted from IC50), the “PIC50 (pIC50 = −log IC50)” value is 6.32. Besides, the MIC in experiment [3] is 6.25 µM (≈ 2.57 µg/mL); in experiment [4], 0.78 to 7.6 µM (≈ 0.32 to 3.12 µg/mL).
